In patent US11691962B2 (eXIthera Pharmaceuticals, Inc., priority 2018, dated 2023):
Where two headings read alike, the source gives them in different places.

How the values were obtained:
Factor XIa = Factor XIa (Homo sapiens (Human), UniProt P03951); test: Factor XIa enzyme inhibition assay (dose response, fluorogenic AMC substrate); type: biochemical; conditions: read-out: hFXIa IC50
Procedure, shortened: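 Fluorogenic progress curves (30 min, 1-min reads, 30° C) were recorded for 0.25 nM FXIa cleaving 50 μM Glp-Pro-Arg-AMC in Hepes pH 7.4 buffer with NaCl and Tween 20. Compounds were serially two-fold diluted, and IC50 was fitted with a Hill equation.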

[1] = Caco-2 cell permeability assay; type: in vitro ADME, human; conditions: human, 37° C.; for Papp A→B at 60 min, 10 μM: Caco-2, apical to basolateral; for Papp B→A at 40 min, 10 μM: Caco-2, basolateral to apical
Procedure, shortened: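 Caco-2 monolayers (days 21-25 post-seeding) received 10 μM compound in HBSS-MES pH 6.5 or HBSS-HEPES pH 7.4 (1% DMSO) at 37 °C, for 60 min A-B or 40 min B-A. Donor and receiver samples were quantified by HPLC-MS/MS (SRM), and Papp and recovery were calculated.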

[2] = Plasma protein binding by equilibrium dialysis; type: in vitro ADME; conditions: pH 7.4, pooled human plasma, 4 hours at 37° C., read-out: PPB (%)
Protocol: The following procedure was used to determine the plasma protein binding of a test compound in pooled plasma from human (mixed gender) via equilibrium dialysis in a 96-well plate format. The dialysate compartment was loaded with phosphate-buffered saline (pH 7.4) and the sample side was loaded with plasma spiked with the test compound at a concentration of 10 μM. After loading, samples were covered and incubated for 4 hours at 37° C. After incubation, each compartment was sampled, diluted with acetonitrile/buffer and centrifuged. The supernatants were analyzed by HPLC-MS/MS. The analyte peak areas obtained from HPLC-MS/MS analysis of each sample were used to calculate protein binding according to the following equation (Equation 4):
[formula] where: AREAp=Peak area of analyte in protein matrix; AREAb=Peak area of analyte in buffer.
The amount measured in the plasma compartment included both free and bound drug, while that on the buffer side represented free drug only; the differences were used to calculate the percentage plasma protein bound. Three reference compounds were tested in each assay: acebutolol, quinidine and warfarin.

Sequence of Factor XIa (P03951 388-625): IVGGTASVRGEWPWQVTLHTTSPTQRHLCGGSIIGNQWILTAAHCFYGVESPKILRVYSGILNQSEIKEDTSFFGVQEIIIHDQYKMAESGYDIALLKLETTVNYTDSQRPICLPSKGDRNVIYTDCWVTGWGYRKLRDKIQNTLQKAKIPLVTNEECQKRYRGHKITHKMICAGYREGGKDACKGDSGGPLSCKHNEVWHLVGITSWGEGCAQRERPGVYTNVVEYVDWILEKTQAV
Sequence of Factor XIa (P03951 19-387 partner): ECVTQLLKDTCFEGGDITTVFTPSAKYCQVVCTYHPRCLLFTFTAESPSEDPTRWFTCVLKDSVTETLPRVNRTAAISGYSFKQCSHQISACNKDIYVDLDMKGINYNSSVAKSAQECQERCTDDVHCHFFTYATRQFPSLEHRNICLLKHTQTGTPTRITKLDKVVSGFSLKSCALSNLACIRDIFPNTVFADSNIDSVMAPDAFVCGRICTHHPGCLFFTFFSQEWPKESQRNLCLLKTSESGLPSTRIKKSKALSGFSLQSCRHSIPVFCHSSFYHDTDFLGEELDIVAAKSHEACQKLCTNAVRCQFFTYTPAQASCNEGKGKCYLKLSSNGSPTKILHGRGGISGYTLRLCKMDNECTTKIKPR

IC50 (Factor XIa) [µM] | Papp A→B at 60 min, 10 μM [1] [nm/s] | Papp B→A at 40 min, 10 μM [1] [nm/s] | fraction unbound at 4 h, 10 μM ([2]; both sexes) | fraction unbound at 4 h, 10 μM ([2]; both) | Structure (SMILES)
< 0.01 | 110 to 300 | 110 to 300 | 0.05 to 0.09 | – | CC[C@@H](NC(=O)N1C(=O)[C@H](Cc2cc(C)nc(NC)c2)[C@H]1C(=O)N(C)c1nccn1C)c1cccc(Cl)c1 [Compound 1-46, (2S,3R)-3-((2-methylamino-6-methylpyridin-4-yl)methyl)-N2-(1-methyl-1H-imidazol-2-yl)-N1-((R)-1-(3-chlorophenyl)propyl)-N2-methyl-4-oxoazetidine-1,2-dicarboxamide]
< 0.01 | < 100 | 310 to 500 | 0.05 to 0.09 | – | CC[C@@H](NC(=O)N1C(=O)[C@H](Cc2ccnc(N)c2)[C@H]1C(=O)N(C)c1ccn(C)n1)C1CCCCC1 [Compound 1-47, (2S,3R)-3-((2-aminopyridin-4-yl)methyl)-N2-(1-methyl-1H-pyrazol-3-yl)-N1-((R)-1-cyclohexylpropyl)-N2-methyl-4-oxoazetidine-1,2-dicarboxamide]
0.01 to 0.1 | < 100 | 310 to 500 | 0.1 to 0.5 | – | C[C@@H](NC(=O)N1C(=O)[C@H](Cc2ccnc(N)c2)[C@H]1C(=O)N(C)c1ccn(C)n1)C1CCCCC1 [Compound 1-50, (2S,3R)-3-((2-aminopyridin-4-yl)methyl)-N2-(1-methyl-1H-pyrazol-3-yl)-N1-((R)-1-cyclohexylethyl)-N2-methyl-4-oxoazetidine-1,2-dicarboxamide]
< 0.01 | < 100 | 310 to 500 | 0.1 to 0.5 | – | CC[C@@H](NC(=O)N1C(=O)[C@H](Cc2cc(C)nc(N)c2)[C@H]1C(=O)N(C)c1nccn1C)c1ccccc1 [Compound 1-51, (2S,3R)-3-((2-amino-6-methylpyridin-4-yl)methyl)-N2-(1-methyl-1H-imidazol-2-yl)-N1-((R)-1-phenylpropyl)-N2-methyl-4-oxoazetidine-1,2-dicarboxamide]
< 0.01 | < 100 | 310 to 500 | 0.1 to 0.5 | – | CC[C@@H](NC(=O)N1C(=O)[C@H](Cc2ccnc(N)c2)[C@H]1C(=O)N(C)c1nccn1C)C1CCCCC1 [Compound 1-55, (2S,3R)-3-((2-aminopyridin-4-yl)methyl)-N2-(1-methyl-1H-imidazol-2-yl)-N1-((R)-1-cyclohexylpropyl)-N2-methyl-4-oxoazetidine-1,2-dicarboxamide]
0.01 to 0.1 | 110 to 300 | 110 to 300 | < 0.05 | – | CC(C)[C@@H](NC(=O)N1C(=O)[C@H](Cc2ccnc(N)c2)[C@H]1C(=O)N(C)c1ccn(C)n1)C1CCCCC1 [Compound 1-57, (2S,3R)-3-((2-aminopyridin-4-yl)methyl)-N2-(1-methyl-1H-pyrazol-3-yl)-N1-((R)-1-cyclohexyl-2-methylpropyl)-N2-methyl-4-oxoazetidine-1,2-dicarboxamide]
< 0.01 | 110 to 300 | 110 to 300 | 0.05 to 0.09 | – | CN(C(=O)[C@@H]1[C@@H](Cc2ccnc(N)c2)C(=O)N1C(=O)N[C@@H](C1CCCCC1)C1CC1)c1ccn(C)n1 [Compound 1-58, (2S,3R)-3-((2-aminopyridin-4-yl)methyl)-N2-(1-methyl-1H-pyrazol-3-yl)-N1-((R)-cyclohexyl-cyclopropylmethyl)-N2-methyl-4-oxoazetidine-1,2-dicarboxamide]
0.01 to 0.1 | 110 to 300 | 110 to 300 | 0.1 to 0.5 | – | CC[C@@H](NC(=O)N1C(=O)[C@H](Cc2cc(C)nc(NC)c2)[C@H]1C(=O)N(C)c1ccnn1C)C1CCCCC1 [Compound 1-62, (2S,3R)-3-((2-methylamino-6-methylpyridin-4-yl)methyl)-N2-(1-methyl-1H-pyrazol-5-yl)-N1-((R)-1-cyclohexylpropyl)-N2-methyl-4-oxoazetidine-1,2-dicarboxamide]
< 0.01 | 110 to 300 | 310 to 500 | 0.1 to 0.5 | – | CC[C@@H](NC(=O)N1C(=O)[C@H](Cc2ccnc(N)c2)[C@H]1C(=O)N(C)c1ccnn1C)C1CCCCC1 [Compound 1-63, (2S,3R)-3-((2-aminopyridin-4-yl)methyl)-N2-(1-methyl-1H-pyrazol-5-yl)-N1-((R)-1-cyclohexylpropyl)-N2-methyl-4-oxoazetidine-1,2-dicarboxamide]
0.01 to 0.1 | 110 to 300 | 310 to 500 | 0.1 to 0.5 | – | CC[C@@H](NC(=O)N1C(=O)[C@H](Cc2cc(C)nc(N)c2)[C@H]1C(=O)N(C)c1ccnn1C)C1CCCCC1 [Compound 1-67, (2S,3R)-3-((2-amino-6-methylpyridin-4-yl)methyl)-N2-(1-methyl-1H-pyrazol-5-yl)-N1-((R)-1-cyclohexylpropyl)-N2-methyl-4-oxoazetidine-1,2-dicarboxamide]
< 0.01 | < 100 | 310 to 500 | 0.1 to 0.5 | – | CC[C@@H](NC(=O)N1C(=O)[C@H](Cc2ccnc(N)c2)[C@H]1C(=O)N(C)c1nccn1C)c1cccc(C)c1 [Compound 1-80, (2S,3R)-3-((2-aminopyridin-4-yl)methyl)-N2-(1-methyl-1H-imidazol-2-yl)-N1-((R)-1-(3-methylphenyl)propyl)-N2-methyl-4-oxoazetidine-1,2-dicarboxamide]
0.01 to 0.1 | < 100 | < 100 | < 0.5 | – | CC[C@@H](NC(=O)N1C(=O)[C@H](Cc2ccnc(N)c2)[C@H]1C(=O)N(C)c1nccn1C)c1ccc(C)nc1 [Compound 1-81, (2S,3R)-3-((2-aminopyridin-4-yl)methyl)-N2-(1-methyl-1H-imidazol-2-yl)-N1-((R)-1-(6-methylpyridin-3-yl)propyl)-N2-methyl-4-oxoazetidine-1,2-dicarboxamide]
0.01 to 0.1 | < 100 | > 500 | – | 0.05 to 0.09 | CC[C@@H](NC(=O)N1C(=O)[C@H](Cc2ccnc(N)c2)[C@H]1C(=O)N(C)c1nccn1C)c1ccccc1Cl [Compound 1-83]
< 0.01 | < 100 | 110 to 300 | 0.1 to 0.5 | – | CC[C@@H](NC(=O)N1C(=O)[C@H](Cc2ccnc(N)c2)[C@H]1C(=O)N(C)c1cnn(C)c1)c1ccccc1 [Compound 1-88, (2S,3R)-3-((2-aminopyridin-4-yl)methyl)-N2-(1-methyl-1H-pyrazol-4-yl)-N1-((R)-1-phenylpropyl)-N2-methyl-4-oxoazetidine-1,2-dicarboxamide]
< 0.01 | < 100 | 110 to 300 | 0.1 to 0.5 | – | CC[C@@H](NC(=O)N1C(=O)[C@H](Cc2cc(C)nc(N)c2)[C@H]1C(=O)N(C)c1ccn(C)n1)c1cccc(Cl)c1 [Compound 1-89, (2S,3R)-3-((2-amino-6-methylpyridin-4-yl)methyl)-N2-(1-methyl-1H-pyrazol-3-yl)-N1-((R)-1-(3-chlorophenyl)propyl)-N2-methyl-4-oxoazetidine-1,2-dicarboxamide]
< 0.01 | < 100 | 110 to 300 | 0.1 to 0.5 | – | CC[C@@H](NC(=O)N1C(=O)[C@H](Cc2ccnc(N)c2)[C@H]1C(=O)N(C)c1cn(C)cn1)c1ccccc1 [Compound 1-90, (2S,3R)-3-((2-aminopyridin-4-yl)methyl)-N2-(1-methyl-1H-imidazol-4-yl)-N1-((R)-1-phenylpropyl)-N2-methyl-4-oxoazetidine-1,2-dicarboxamide]
< 0.01 | < 100 | 110 to 300 | 0.1 to 0.5 | – | CC[C@@H](NC(=O)N1C(=O)[C@H](Cc2ccnc(N)c2)[C@H]1C(=O)N(C)c1ccn(C)n1)c1cccc(Cl)c1 [Compound 1-91, (2S,3R)-3-((2-aminopyridin-4-yl)methyl)-N2-(1-methyl-1H-pyrazol-3-yl)-N1-((R)-1-(3-chlorophenyl)propyl)-N2-methyl-4-oxoazetidine-1,2-dicarboxamide]
< 0.01 | < 100 | 310 to 500 | 0.1 to 0.5 | – | CC[C@@H](NC(=O)N1C(=O)[C@H](Cc2ccnc(N)c2)[C@H]1C(=O)N(C)c1ccnn1C)c1ccccc1 [Compound 1-92, (2S,3R)-3-((2-aminopyridin-4-yl)methyl)-N2-(1-methyl 1H-pyrazol-5-yl)-N1-((R)-1-phenylpropyl)-N2-methyl-4-oxoazetidine-1,2-dicarboxamide]
